In patent publication US20250074911A1, “MACROCYCLIC BTK INHIBITORS” (Crossfire Oncology Holding B.V., priority 2021, published 2025):

How the values were obtained:
[1] = target: full-length wt-BTK enzyme (Homo sapiens (Human), UniProt Q06187); test: Biochemical kinase assay wt-BTK (IMAP)
Experimental: Biochemical kinase assay wt-BTK To determine the inhibitory activity of compounds on wt-BTK enzyme activity, the IMAP® assay (Molecular Devices) was used. […] After pre-incubation of 1 hour in the dark at room temperature, fluorescein-labeled MBP-derived substrate peptide (Molecular Devices, cat. no. RP 7123) was added, followed by ATP to start the reaction. Final enzyme concentration was 1.2 nM, final substrate concentration 50 nM, and final ATP concentration was 4 μM. The reaction was allowed to proceed for 2 hours at room temperature in the dark. The reaction was stopped by quenching with IMAP progressive binding solution according to the protocol of the manufacturer (Molecular Devices). Fluorescein polarization was measured on an Envision multimode reader (Perkin Elmer, Waltham, MA, U.S.A.). […] Results of the wt-BTK binding affinity are shown in Table 1 below. • IC50 wt-BTK: […]

[2] = target: full-length BTK C481S enzyme (Homo sapiens (Human), UniProt Q06187, C481S); test: Biochemical kinase assay BTK C481S (IMAP)
Sequence of full-length BTK C481S enzyme (Q06187 whole entry C481S): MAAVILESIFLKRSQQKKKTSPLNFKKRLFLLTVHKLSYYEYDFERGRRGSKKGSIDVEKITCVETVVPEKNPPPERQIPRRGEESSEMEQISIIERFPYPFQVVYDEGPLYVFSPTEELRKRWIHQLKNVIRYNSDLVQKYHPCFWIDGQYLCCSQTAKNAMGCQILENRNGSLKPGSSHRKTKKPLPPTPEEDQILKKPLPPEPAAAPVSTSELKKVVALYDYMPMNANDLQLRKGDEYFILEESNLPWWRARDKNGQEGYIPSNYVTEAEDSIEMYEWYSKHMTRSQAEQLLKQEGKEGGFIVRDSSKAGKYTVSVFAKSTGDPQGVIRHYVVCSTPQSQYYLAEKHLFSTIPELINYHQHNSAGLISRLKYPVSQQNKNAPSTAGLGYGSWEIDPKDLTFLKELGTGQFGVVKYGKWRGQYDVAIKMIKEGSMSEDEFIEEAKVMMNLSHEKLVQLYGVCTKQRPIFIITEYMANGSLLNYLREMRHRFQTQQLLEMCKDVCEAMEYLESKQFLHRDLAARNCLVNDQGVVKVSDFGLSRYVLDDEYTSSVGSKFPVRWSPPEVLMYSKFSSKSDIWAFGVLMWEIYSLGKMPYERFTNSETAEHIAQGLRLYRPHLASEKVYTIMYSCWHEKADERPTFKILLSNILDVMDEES
Experimental: Biochemical kinase assay BTK […] To determine the inhibitory activity of compounds on BTK C481S enzyme activity, the IMAP® assay (Molecular Devices) was used. […] After pre-incubation of 1 hour in the dark at room temperature, fluorescein-labeled MBP-derived substrate peptide (Molecular Devices, cat. no. RP 7123) was added, followed by ATP to start the reaction. Final enzyme concentration was 1.2 nM final substrate concentration 50 nM, and final ATP concentration was 7 μM. The reaction was allowed to proceed for 2 hours at room temperature in the dark. The reaction was stopped by quenching with IMAP progressive binding solution according to the protocol of the manufacturer (Molecular Devices). Fluorescein polarization was measured on an Envision multimode reader (Perkin Elmer, Waltham, MA, U.S.A.). IC50 were calculated using XLfitTM5 software (ID Business Solutions, Ltd., Surrey, U.K.). Results of the BTK […] binding affinity are shown in Table 1 below. • IC50 BTK […]: […]

[3] = tested on: wt-REC-1 mantle cell lymphoma cells; test: Cell proliferation assay wt-REC-1 (ATPlite, 72 hours); type: cell-based; conditions: 72 h; read-out: IC50 wt-REC-1
Experimental: Results of the BTK […] binding affinity are shown in Table 1 below. • IC50 BTK […]: […] wt-REC-1 mantle cell lymphoma cells were purchased from American Type Culture Collection via Synthego Corporation (cat. no. CRL-3004, ATCC). […] Luminescence was recorded on an Envision multimode reader. The cell signal at the start of incubation was recorded separately in order to distinguish between cell population growth and cell death. In addition, maximum growth was determined by incubation of a duplicate without compound in the presence of 0.3% DMSO. Percentage growth was used as the main y-axis signal. IC50s were fitted by non-linear regression using IDBS XLfitTM5 using a 4-parameter logistic curve, yielding a maximum signal, minimum signal, hill-parameter and IC50. Results of the wt-REC-1 proliferation are shown in Table 1 below. • IC50 wt-REC-1: […]

REC-1 T474I cell lines = test: Cell proliferation assay REC-1 BTK T474I knock-in cells (ATPlite, 72 hours); type: cell-based; conditions: Homo sapiens, Rec1; 72 hours; read-out: IC50 REC-1 T474I
Experimental: Cell proliferation assay Generation of BTK […] knock-in cell lines wt-REC-1 cell lines expressing mutant BTK were created at Synthego Corporation. Cell lines expressing BTK […] was generated via CRISPR/Cas9. Monoclonal REC-1 […] cell lines were obtained by single cell cloning. The mutation status of all cell lines was confirmed via sequencing. […] Luminescence was recorded on an Envision multimode reader. The cell signal at the start of incubation was recorded separately in order to distinguish between cell population growth and cell death. In addition, maximum growth was determined by incubation of a duplicate without compound in the presence of 0.3% DMSO. Percentage growth was used as the main y-axis signal.

Sequence of full-length wt-BTK enzyme (Q06187 whole entry): as the sequence (Q06187 whole entry C481S) above, with S481C counted along it

Row | Compound | IC50 [1] | IC50 [2] | IC50 [3] | IC50 (REC-1 T474I cell lines)
1 | COC1/C=C/c2cnc(N)c3c(-c4ccc(C(=O)Nc5cc(C(F)(F)F)ccn5)cc4)nn(c23)[C@@H]2CCC[C@H](C2)NC(=O)CCC1 (stereo partly drawn) [Example 19] | 5 to 50 nM | 5 to 50 nM | 100 to 1000 nM | 500 to 10000 nM
2 | Nc1ncc2c3c1c(-c1ccc(C(=O)Nc4cc(C(F)(F)F)ccn4)cc1)nn3[C@@H]1CCC[C@H](C1)NC(=O)CCCCNC/C=C/2 [Example 22] | < 5 nM | < 5 nM | 100 to 1000 nM | 500 to 10000 nM
3 | C[C@@H]1CCn2nc(-c3ccc(C(=O)Nc4cc(C(F)(F)F)ccn4)cc3)c3c(N)ncc(c32)/C=C/CO[C@@H](C)C(=O)N1 [Example 58] | 5 to 50 nM | 5 to 50 nM | 1000 to 10000 nM | 500 to 10000 nM
4 | C[C@@H]1CCn2nc(-c3ccc(C(=O)Nc4cc(C(F)(F)F)ccn4)cc3)c3c(N)ncc(c32)/C=C/CCCCCCC(=O)N1 [Example 62] | < 5 nM | < 5 nM | 100 to 1000 nM | 500 to 10000 nM
5 | C[C@@H]1CCn2nc(-c3ccc(C(=O)Nc4cc(C(F)(F)F)ccn4)cc3)c3c(N)ncc(c32)/C=C/CCCCCCCC(=O)N1 [Example 63] | < 5 nM | < 5 nM | 100 to 1000 nM | 500 to 10000 nM
6 | C[C@@H]1CCn2nc(-c3ccc(C(=O)Nc4cc(C(F)(F)F)ccn4)cc3)c3c(N)ncc(c32)/C=C/CCCCCCCCC(=O)N1 [Example 64] | 5 to 50 nM | < 5 nM | 100 to 1000 nM | 500 to 10000 nM
7 | C[C@@H]1CCn2nc(-c3ccc(C(=O)Nc4cc(C(F)(F)F)ccn4)cc3)c3c(N)ncc(c32)/C=C/C[S+]([O-])CC(=O)N1 (stereo partly drawn) [Example 65] | < 5 nM | < 5 nM | 1000 to 10000 nM | 500 to 10000 nM
8 | C[C@@H]1CCn2nc(-c3ccc(C(=O)Nc4cc(C(F)(F)F)ccn4)cc3)c3c(N)ncc(c32)/C=C/CN(C)CCCC(=O)N1 [Example 66] | < 5 nM | < 5 nM | 1000 to 10000 nM | 500 to 10000 nM
9 | C[C@@H]1CCn2nc(-c3ccc(C(=O)Nc4cc(C(F)(F)F)ccn4)cc3)c3c(N)ncc(c32)/C=C/CNCCCC(=O)N1 [Example 67] | < 5 nM | < 5 nM | 1000 to 10000 nM | 500 to 10000 nM
10 | Nc1ncc2c3c1c(-c1ccc(C(=O)Nc4cc(C(F)(F)F)ccn4)cc1)nn3[C@@H]1CCC[C@H](C1)C(=O)NCCC/C=C/C2 [Example 84a] | 5 to 50 nM | 5 to 50 nM | 100 to 1000 nM | 500 to 10000 nM
11 | Nc1ncc2c3c1c(-c1ccc(C(=O)Nc4cc(C(F)(F)F)ccn4)cc1)nn3[C@@H]1CCC[C@H](C1)C(=O)NCCC/C=C\C2 [Example 84b] | 5 to 50 nM | < 5 nM | 100 to 1000 nM | –
12 | Nc1ncc2c3c1c(-c1ccc(C(=O)Nc4cc(C(F)(F)F)ccn4)cc1)nn3[C@@H]1CCC[C@H](C1)C(=O)NCCCC/C=C/C2 [Example 85a] | 5 to 50 nM | 50 to 500 nM | 100 to 1000 nM | 500 to 10000 nM
13 | Nc1ncc2c3c1c(-c1ccc(C(=O)Nc4ccccn4)cc1)nn3[C@@H]1CCC[C@H](C1)C(=O)NCCCC/C=C/C2 [Example 87a] | 50 to 500 nM | 50 to 500 nM | 1000 to 10000 nM | 500 to 10000 nM
14 | Nc1ncc2c3c1c(-c1ccc(C(=O)Nc4ccccn4)cc1)nn3[C@@H]1CCC[C@H](C1)C(=O)NCCCCC/C=C/C2 [Example 88a] | 5 to 50 nM | 5 to 50 nM | 100 to 1000 nM | 500 to 10000 nM
15 | Nc1ncc2c3c1c(-c1ccc(C(=O)Nc4cc(C(F)(F)F)ccn4)cc1)nn3[C@@H]1CCC[C@H](C1)C(=O)NCCCCC/C=C/C2 [Example 89a] | 5 to 50 nM | 5 to 50 nM | 100 to 1000 nM | 500 to 10000 nM
16 | Nc1ncc2c3c1c(-c1ccc(C(=O)Nc4ccccn4)cc1)nn3[C@@H]1CCC[C@H](C1)C(=O)NCCC/C=C\C2 [Example 90] | 5 to 50 nM | 5 to 50 nM | 100 to 1000 nM | 500 to 10000 nM

Row | Compound | IC50 [1] | IC50 [2] | IC50 [3] | IC50 (REC-1 T474I cell lines)
17 | Nc1ncc2c3c1c(-c1ccc(C(=O)Nc4ccccn4)cc1)nn3[C@@H]1CCC[C@H](C1)C(=O)NCC/C=C\C2 [Example 91] | 50 to 500 nM | 50 to 500 nM | 1000 to 10000 nM | 500 to 10000 nM
18 | Nc1ncc2c3c1c(-c1ccc(C(=O)Nc4cc(C(F)(F)F)ccn4)cc1)nn3[C@@H]1CCC[C@H](C1)C(=O)NCCCCCC/C=C\C2 [Example 92] | 5 to 50 nM | 5 to 50 nM | 100 to 1000 nM | 500 to 10000 nM
19 | Nc1ncc2c3c1c(-c1ccc(C(=O)Nc4ccccn4)cc1)nn3[C@@H]1CCC[C@H](C1)C(=O)NCCCCCC/C=C\C2 [Example 93] | 5 to 50 nM | < 5 nM | 100 to 1000 nM | 500 to 10000 nM
20 | Nc1ncc2c3c1c(-c1ccc(C(=O)Nc4cc(C(F)(F)F)ccn4)cc1)nn3[C@@H]1CCC[C@H](C1)NC(=O)CCC/C=C/C2 [Example 94a] | 5 to 50 nM | 5 to 50 nM | 100 to 1000 nM | 500 to 10000 nM
21 | Nc1ncc2c3c1c(-c1ccc(C(=O)Nc4cc(C(F)(F)F)ccn4)cc1)nn3[C@@H]1CCC[C@H](C1)NC(=O)CCC/C=C\C2 [Example 94b] | < 5 nM | < 5 nM | 100 to 1000 nM | 500 to 10000 nM
22 | Nc1ncc2c3c1c(-c1ccc(C(=O)Nc4cc(C(F)(F)F)ccn4)cc1)nn3[C@@H]1CCC[C@H](C1)NC(=O)CC/C=C/C2 [Example 95] | 5 to 50 nM | 5 to 50 nM | 1000 to 10000 nM | 500 to 10000 nM
23 | Nc1ncc2c3c1c(-c1ccc(C(=O)Nc4ccccn4)cc1)nn3[C@@H]1CCC[C@H](C1)NC(=O)CC/C=C/C2 [Example 96a] | 50 to 500 nM | 50 to 500 nM | 1000 to 10000 nM | 500 to 10000 nM
24 | Nc1ncc2c3c1c(-c1ccc(C(=O)Nc4ccccn4)cc1)nn3[C@@H]1CCC[C@H](C1)NC(=O)CC/C=C\C2 [Example 96b] | 5 to 50 nM | 5 to 50 nM | 1000 to 10000 nM | 500 to 10000 nM
25 | Nc1ncc2c3c1c(-c1ccc(C(=O)Nc4cc(C(F)(F)F)ccn4)cc1)nn3[C@@H]1CCC[C@H](C1)NC(=O)COC/C=C/C2 [Example 97a] | 5 to 50 nM | 5 to 50 nM | 1000 to 10000 nM | 500 to 10000 nM
26 | Nc1ncc2c3c1c(-c1ccc(C(=O)Nc4cc(C(F)(F)F)ccn4)cc1)nn3[C@@H]1CCC[C@H](C1)NC(=O)CCCC/C=C/C2 [Example 98a] | 50 to 500 nM | 50 to 500 nM | 100 to 1000 nM | 500 to 10000 nM
27 | Nc1ncc2c3c1c(-c1ccc(C(=O)Nc4ccccn4)cc1)nn3[C@@H]1CCC[C@H](C1)NC(=O)CCC/C=C/C2 [Example 99a] | 50 to 500 nM | 50 to 500 nM | 1000 to 10000 nM | 500 to 10000 nM
28 | Nc1ncc2c3c1c(-c1ccc(C(=O)Nc4ccccn4)cc1)nn3[C@@H]1CCC[C@H](C1)NC(=O)CCCC/C=C/C2 [Example 100a] | 50 to 500 nM | 50 to 500 nM | 1000 to 10000 nM | 500 to 10000 nM
29 | Nc1ncc2n3c(nc(-c4ccc(C(=O)Nc5cc(C(F)(F)F)ccn5)cc4)c13)CCCNC(=O)CCC=CC2 [Example 134] | 5 to 50 nM | 5 to 50 nM | 1000 to 10000 nM | –
30 | Nc1ncc2n3c(nc(-c4ccc(C(=O)Nc5cc(C(F)(F)F)ccn5)cc4)c13)CCCNC(=O)CCCC=CC2 [Example 135] | 5 to 50 nM | 5 to 50 nM | 1000 to 10000 nM | –
31 | Nc1ncc2n3c(nc(-c4ccc(C(=O)Nc5cc(C(F)(F)F)ccn5)cc4)c13)[C@@H]1CCC[C@H](C1)NC(=O)CC/C=C/C2 [Example 136] | 5 to 50 nM | 5 to 50 nM | 1000 to 10000 nM | –
